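Cultured in 96-well plates, cells were exposed to test compound for 48 hours across five concentrations. GI50: concentration for 50% inhibition of growth.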 Activity calls are given as the source filed them. Cut-off read from the data, not from the text of the source: active = GI50 up to about 1.1 µM and inactive = higher.

These results are taken from ChEMBL document CHEMBL1201862, “PubChem BioAssay data set” (2004).

Holding throughout (assay): NCI anticancer screen, dose series, 48 h
The test system of assay [1] is K562.
The test system of assay [2] is OVCAR-8.
In assay [3] the test system is NCI-H226.
Assay [4] deals with NCI/ADR-RES.
Assay [5] relates to SF-268.
Assay [6] concerns KM12.
Assay [7] deals with SNB-75.
The test system of assay [8] is HCT-116.
The test system of assay [9] is A498.
Assay [10] relates to MDA-MB-435.
Assay [11] concerns COLO 205.
Assay [12] relates to T47D.
The test system of assay [13] is 786-0.
Assay [14] concerns M14.
The subject of assay [15] is OVCAR-5.
The test system of assay [16] is SR.
Assay [17] relates to SK-OV-3.
In assay [18] the test system is CCRF-CEM.
Assay [19] has as its system SK-MEL-5.
Assay [20] relates to MDA-MB-231.

With `Cc1ccc(-c2cn3c(nc4ccccc43)c(C)n2)cc1`, the GI50 was 43.5 µM (inactive) in [1]; 36 µM (inactive) in assay [2]; 34.3 µM (inactive) in assay [3]; 40.1 µM (inactive) in [4]; > 46.6 µM (inactive) in assay [5]; > 100 µM (inactive) in assay [6]. Also, the GI50 is > 47 µM (inactive) in assay [7]; 32 µM (inactive) in assay [8]; 19.8 µM (inactive) in assay [9]; 16 µM (inactive) in assay [10]; 49.9 µM (inactive) in [11]; 4.2 µM (inactive) in [12]. Besides, the GI50 in assay [13] was 25.8 µM (inactive); in assay [14], 39.5 µM (inactive); in [15] it was 51.6 µM (inactive); in assay [16], 21.5 µM (inactive); in assay [17], 7.66 µM (inactive); in assay [18], 85.3 µM (inactive). Moreover, the GI50 in [19] is 10.7 µM (inactive); in assay [20], > 94.6 µM (inactive).
On to `Cc1nc(-c2ccccc2)cn2c1nc1ccccc12`, for which the GI50 in assay [1] is > 61.7 µM (inactive); in [2], 18.8 µM (inactive); in [3] it was 17.5 µM (inactive); in assay [4], 20.9 µM (inactive); in [5], 28.5 µM (inactive); in assay [6], 20.8 µM (inactive). For the same compound, the GI50 in assay [7] was 17.2 µM (inactive); in assay [8], 25.9 µM (inactive); in assay [9], 15.3 µM (inactive); in [10] it was 19.2 µM (inactive); in assay [11] it was 37.9 µM (inactive); in assay [12] it was 2.05 µM (inactive). Moreover, the GI50 in [13] is 21 µM (inactive); in assay [14], 30.5 µM (inactive); in assay [15] it was > 31.6 µM (inactive); in assay [16], 27.2 µM (inactive); in assay [17], 6.32 µM (inactive); in assay [18], > 58.7 µM (inactive). In addition, the GI50 in [19] is 13.9 µM (inactive); in assay [20], 29.9 µM (inactive).
As for `COc1cc(/C=C2\C[C@H]3[C@@H]4CCC5=CC(=O)CC[C@]5(C)[C@H]4CC[C@]3(C)C2=O)cc(OC)c1OC`, the GI50 in [1] was 3.82 µM (inactive); in assay [2] it was 4 µM (inactive); in assay [3], > 28.5 µM (inactive); in [4] it was 3.86 µM (inactive); in assay [5] it was 57.3 µM (inactive); in assay [6], 3.58 µM (inactive). Further, the GI50 in [7] is 9.08 µM (inactive); in [8], 3.85 µM (inactive); in assay [9], 17.7 µM (inactive); in assay [10], 3.36 µM (inactive); in assay [11] it was 4.32 µM (inactive); in assay [12] it was 2.04 µM (inactive). Further, the GI50 was 23.1 µM (inactive) in [13]; 3.74 µM (inactive) in assay [14]; 33.1 µM (inactive) in [15]; 3.04 µM (inactive) in assay [16]; 29.4 µM (inactive) in assay [17]; 4.76 µM (inactive) in assay [18]. The values for the GI50 in [19] and in [20] were 3.07 µM (inactive) and 7.74 µM (inactive), respectively.
In the case of `Cc1nc2ccc(/N=N/N(C)C)cc2[nH]1`, the GI50 in assay [2], in [3], in [4], in assay [5], in [6] and in assay [7] was > 100 µM (inactive) each time. The GI50 in assay [8], in assay [9], in [10], in assay [11], in [12] and in assay [13] was > 100 µM (inactive) each time. In addition, the GI50 is > 100 µM (inactive) in assay [14]; > 100 µM (inactive) in assay [15]; > 100 µM (inactive) in assay [16]; > 100 µM (inactive) in assay [17]; 98.9 µM (inactive) in [18]; > 100 µM (inactive) in [19]. The GI50 in assay [20] was > 100 µM (inactive).
For `O=C1N[C@@H]2O[C@H](CNC(=O)c3cc(Br)c[nH]3)C[C@]2(O)N1.O=C1N[C@H]2O[C@H](CNC(=O)c3cc(Br)c[nH]3)C[C@@]2(O)N1`, the GI50 in assay [1], in [2], in assay [3], in assay [4], in assay [5] and in assay [6] was > 100 µM (inactive) each time. Further, the GI50 in assay [7], in assay [8], in [9], in [10], in assay [11] and in assay [12] was > 100 µM (inactive) in each case. For the same compound, the GI50 was > 100 µM (inactive) in [13]; > 100 µM (inactive) in assay [14]; > 100 µM (inactive) in assay [15]; 0.379 µM (active) in assay [16]; > 100 µM (inactive) in assay [17]; > 100 µM (inactive) in assay [19]. Besides, the GI50 in assay [20] is > 100 µM (inactive).
Consider `CN1CCN(C2=C(Cl)C(=O)c3c(O)ccc(O)c3C2=O)CC1`, for which the GI50 is 0.217 µM (active) in [1]; 0.223 µM (active) in assay [2]; 2 µM (inactive) in assay [3]; 0.632 µM (active) in assay [4]; 1.85 µM (inactive) in assay [5]; 1.99 µM (inactive) in assay [6]. Also, the GI50 in assay [7] is 2.03 µM (inactive); in assay [8] it was 0.234 µM (active); in assay [9], 2.52 µM (inactive); in assay [10] it was 0.214 µM (active); in assay [11], 0.182 µM (active); in [12] it was 0.551 µM (active). Also, the GI50 was 0.244 µM (active) in assay [13]; 0.281 µM (active) in [14]; 1.58 µM (inactive) in assay [15]; 0.094 µM (active) in assay [16]; 5.62 µM (inactive) in [17]; 0.105 µM (active) in assay [18]. The GI50 in [19] is 0.502 µM (active); in [20], 0.516 µM (active).
For `O=C(O)c1ccccc1C(=O)NCC1S(=O)(=O)OCCOS1(=O)=O`, the GI50 in [1], in assay [2], in assay [3], in [4], in assay [5] and in [7] was > 100 µM (inactive) in each case. Further, the GI50 in [8], in [9], in [10], in [11], in assay [12] and in assay [13] was > 100 µM (inactive) in each case. Besides, the GI50 in assay [14], in [15], in [16], in assay [17], in assay [18] and in assay [19] was > 100 µM (inactive) in each case. Further, in [20], the GI50 was > 100 µM (inactive).
For `Oc1cc(Cl)cc2cc(Cl)cnc12`, the GI50 is 0.989 µM (active) in [1]; 2.28 µM (inactive) in [2]; 19.5 µM (inactive) in assay [3]; 1.49 µM (inactive) in assay [4]; 1.14 µM (inactive) in [5]; 5.13 µM (inactive) in assay [6]. In addition, the GI50 in [7] is 5.35 µM (inactive); in assay [8] it was 2.67 µM (inactive); in [9], 12.5 µM (inactive); in assay [10], 2.87 µM (inactive); in assay [11], 31 µM (inactive); in [12], 3.34 µM (inactive). In addition, the GI50 is 23 µM (inactive) in assay [13]; 3.3 µM (inactive) in assay [14]; 17.5 µM (inactive) in assay [15]; 1.56 µM (inactive) in assay [16]; 30.8 µM (inactive) in assay [17]; 1.78 µM (inactive) in assay [18]. Also, the GI50 in [19] is 3.67 µM (inactive); in assay [20], 3.56 µM (inactive).
Take `CC(C)[Si]1(C(C)C)OCC2OC(n3ccc(=O)[nH]c3=O)C([Se]c3ccccc3)C2O[Si](C(C)C)(C(C)C)O1` (stereo not given): the GI50 in assay [2] was 3.4 µM (inactive); in assay [3], 1.55 µM (inactive); in assay [4] it was 11.2 µM (inactive); in assay [5] it was 2.93 µM (inactive); in assay [6], 2.16 µM (inactive); in assay [7], 0.33 µM (active). Further, the GI50 in [8] was 2.62 µM (inactive); in assay [9], 7.87 µM (inactive); in assay [10] it was 5.42 µM (inactive); in assay [11], 4.86 µM (inactive); in assay [12], 6.71 µM (inactive); in assay [13] it was 3.83 µM (inactive). The GI50 is 8.24 µM (inactive) in assay [14]; 9.48 µM (inactive) in assay [15]; 3.72 µM (inactive) in [16]; 16.5 µM (inactive) in [17]; 8.91 µM (inactive) in [18]; 3.01 µM (inactive) in assay [19]. In assay [20], the GI50 was 2.83 µM (inactive).
Regarding `N#Cc1nc(/C=C/c2cccnc2)oc1N`, the GI50 in assay [1], in assay [3], in assay [4], in assay [5], in assay [6] and in [7] was > 100 µM (inactive) each time. Moreover, the GI50 in assay [8], in assay [9], in assay [10], in assay [11], in assay [12] and in assay [13] was > 100 µM (inactive) each time. In addition, the GI50 in assay [14], in assay [15], in assay [16], in assay [17], in assay [18] and in [19] was > 100 µM (inactive) throughout. Moreover, in [20], the GI50 was > 100 µM (inactive).
